Measurements reported in US7452865B2, “Antagonistic analogs of GH RH (2003)” (The Administrare's of the Tulane Educational Fund, priority 2004, dated 2008).
Square brackets hold non-standard residues; d marks the D form. Peptide text beside a SMILES is read from it. * marks the point of attachment. Phe(4-Cl) = N[C@@H](Cc1ccc(Cl)cc1)C(=O)O; HOOC(CH2)6CO = O=C(O)CCCCCCC(=O)*; hArg = N=C(N)NCCCC[C@H](N)C(=O)O; Cit = NC(=O)NCCC[C@H](N)C(=O)O; Decanoyl = CCCCCCCCCC(=O)*; Nle = CCCC[C@H](N)C(=O)O; Octanoyl = CCCCCCCC(=O)*; Abu = CC[C@H](N)C(=O)O; PhAc = O=C(Cc1ccccc1)*

How the values were obtained:
[1] = system: GH-RH receptor isoforms on membrane fractions of human PC-3 prostate tumors; assay type: binding; details: for binding affinities to the tumoral receptors for GH-RH (in words): general statement
From the text: Ligand competition assays with ^125I-labeled GH-RH antagonist JV-1-42 were used to determine the binding affinities of GH-RH analogs to the GH-RH receptor isoforms on membrane fractions of human PC-3 prostate tumors. The methods used have been described in detail (Halmos G, Schally A V, Varga J L, Plonowski A, Rekasi Z, Czompoly T, Proc Natl Acad Sci USA 97: 10555-10560, 2000; Halmos G, Schally A V, Czompoly T, Krupa M, Varga J L, Rekasi Z, J Clin Endocrinol Metab 87: 4707-4714, 2002), hereby incorporated by reference. Briefly, radioiodinated derivatives of JV-142 are prepared by the chloramine-T method. PC-3 tumors, grown as xenografts in nude mice, are used to prepare crude membranes. PC-3 membrane homogenates are incubated with [^125I]JV-142 and increasing concentrations (10^−12 to 10^−6 M) of nonradioactive antagonist peptides as competitors. The pellet is separated by centrifugation and counted for radioactivity in a gamma-counter. The final binding affinities are estimated by K1 (dissociation constant of the inhibitor-receptor complex) and are determined by the Ligand PC and McPherson computer programs of Munson and Rodbard (P. J. Munson and D. Rodbard, Anal. Biochem. […]: 220-239, 1980). Relative affinities (R.A.) compared to reference peptides such as JV-1-36 or JV-1-38, are calculated as the ratio of K1 of the reference peptide to the K, of the tested GH-RH antagonist.

[2] = system: hGH-RH(1-29)NH2 induced GH release; assay: Inhibition of GH release in superfused rat pituitary system; assay type: cell-based; details: for GH response (% of control) 0 min / GH response (% of control) 30 min / GH response (% of control) 60 min / GH response (% of control) 90 min / GH response (% of control) 120 min: antagonist 30 nM; for GH response (% of control) 0 min: 1 nM hGH-RH(1-29)NH2 at 0 min; for GH response (% of control) 30 min: 1 nM hGH-RH(1-29)NH2 at 30 min; for GH response (% of control) 60 min: 1 nM hGH-RH(1-29)NH2 at 60 min; for GH response (% of control) 90 min: 1 nM hGH-RH(1-29)NH2 at 90 min; for GH response (% of control) 120 min: 1 nM hGH-RH(1-29)NH2 at 120 min; for endocrine antagonistic potency: inhibition of the GH release stimulated by hGH-RH(1-29)NH2 (in words): general statement, in vitro and in vivo
Summary of the method: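 GH output was quantified by double-antibody RIA in superfusates of rat pituitary cells. Peptides were applied for 9 min at various concentrations before a 3-min 1 nM hGH-RH(1-29)NH2 pulse, with further pulses 30–120 min later; net integral responses given as percent of the original response.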

| SMILES | Relative Affinities (R.A.) to membrane receptors on PC-3 human prostate cancers [1] | binding affinities to the tumoral receptors for GH-RH (in words) [1] | GH response (% of control) 0 min [2] | GH response (% of control) 30 min [2] | GH response (% of control) 60 min [2] | GH response (% of control) 90 min [2] | GH response (% of control) 120 min [2] | endocrine antagonistic potency: inhibition of the GH release stimulated by hGH-RH(1-29)NH2 (in words) [2] |
| --- | --- | --- | --- | --- | --- | --- | --- | --- |
| CCCC[C@H](NC(=O)[C@@H](NC(=O)[C@H](CC(=O)O)NC(=O)[C@H](CCC(N)=O)NC(=O)[C@H](CC(C)C)NC(=O)[C@H](CC(C)C)NC(=O)[C@H](CCCCN)NC(=O)[C@H](CCCNC(=N)N)NC(=O)[C@H](C)NC(=O)[C@H](CO)NC(=O)[C@H](CC(C)C)NC(=O)[C@H](CCC(N)=O)NC(=O)[C@H](CC)NC(=O)[C@H](CC(C)C)NC(=O)[C@@H](NC(=O)[C@H](CCCCN)NC(=O)[C@H](CCCNC(=N)N)NC(=O)[C@H](Cc1ccc(O)cc1)NC(=O)[C@H](CCCNC(=N)N)NC(=O)[C@H](CC(N)=O)NC(=O)[C@@H](NC(=O)[C@H](Cc1ccc(Cl)cc1)NC(=O)[C@@H](NC(=O)[C@H](C)NC(=O)[C@H](CC(=O)O)NC(=O)[C@@H](CCCNC(=N)N)NC(=O)[C@H](Cc1ccc(O)cc1)NC(=O)CCCCCCC(=O)O)[C@@H](C)CC)[C@@H](C)O)C(C)C)[C@@H](C)CC)C(=O)N[C@H](CCCNC(=N)N)C(=O)N[C@@H](CCCCNC(=N)N)C(N)=O [Peptide 5, [HOOC(CH2)6CO-Tyr^1, D-Arg^2, Phe(pCl)^6, Arg^9, Abu^15, Nle^27, D-Arg^28, Har^29]hGH-RH(1-29)NH2] ({HOOC(CH2)6CO}-Y[dR]DAI[Phe(4-Cl)]TNRYRKVL[Abu]QLSARKLLQDI[Nle][dR][hArg]-NH2) | 4 | extremely high binding affinities | 22 % of control | 20 % of control | 23 % of control | 27 % of control | 27 % of control |  |
| CCCC[C@H](NC(=O)[C@@H](NC(=O)[C@H](CC(=O)O)NC(=O)[C@H](CCC(N)=O)NC(=O)[C@H](CC(C)C)NC(=O)[C@H](CC(C)C)NC(=O)[C@H](CCCCN)NC(=O)[C@H](CCCNC(=N)N)NC(=O)[C@H](C)NC(=O)[C@H](CO)NC(=O)[C@H](CC(C)C)NC(=O)[C@H](CCC(N)=O)NC(=O)[C@H](CC)NC(=O)[C@H](CC(C)C)NC(=O)[C@@H](NC(=O)[C@H](CCCCN)NC(=O)[C@H](CCCNC(=N)N)NC(=O)[C@H](Cc1ccc(O)cc1)NC(=O)[C@H](CCCNC(N)=O)NC(=O)[C@H](CCCNC(N)=O)NC(=O)[C@@H](NC(=O)[C@H](Cc1ccc(Cl)cc1)NC(=O)[C@@H](NC(=O)[C@H](C)NC(=O)[C@H](CC(=O)O)NC(=O)[C@@H](CCCNC(=N)N)NC(=O)[C@H](Cc1ccc(O)cc1)NC(=O)Cc1ccccc1)[C@@H](C)CC)[C@@H](C)O)C(C)C)[C@@H](C)CC)C(=O)N[C@H](CCCNC(=N)N)C(=O)N[C@@H](CCCCNC(=N)N)C(N)=O [Peptide 22, [PhAc-Tyr^1, D-Arg^2, Phe(pCl)^6, Cit^8, Cit^9, Abu^15, Nle^27, D-Arg^28, Har^29]hGH-RH(1-29)NH2] (PhAc-Y[dR]DAI[Phe(4-Cl)]T[Cit][Cit]YRKVL[Abu]QLSARKLLQDI[Nle][dR][hArg]-NH2) |  | extremely high binding affinities | 22 % of control | 26 % of control | 27 % of control | 45 % of control |  |  |
| CCCCCCCC(=O)N[C@@H](Cc1ccc(O)cc1)C(=O)N[C@H](CCCNC(=N)N)C(=O)N[C@@H](CC(=O)O)C(=O)N[C@@H](C)C(=O)N[C@H](C(=O)N[C@@H](Cc1ccc(Cl)cc1)C(=O)N[C@H](C(=O)N[C@@H](CC(N)=O)C(=O)N[C@@H](CCCNC(=N)N)C(=O)N[C@@H](Cc1ccc(O)cc1)C(=O)N[C@@H](CCCNC(=N)N)C(=O)N[C@@H](CCCCN)C(=O)N[C@H](C(=O)N[C@@H](CC(C)C)C(=O)N[C@@H](CC)C(=O)N[C@@H](CCC(N)=O)C(=O)N[C@@H](CC(C)C)C(=O)N[C@@H](CO)C(=O)N[C@@H](C)C(=O)N[C@@H](CCCNC(=N)N)C(=O)N[C@@H](CCCCN)C(=O)N[C@@H](CC(C)C)C(=O)N[C@@H](CC(C)C)C(=O)N[C@@H](CCC(N)=O)C(=O)N[C@@H](CC(=O)O)C(=O)N[C@H](C(=O)N[C@@H](CCCC)C(=O)N[C@H](CCCNC(=N)N)C(=O)N[C@@H](CCCCNC(=N)N)C(N)=O)[C@@H](C)CC)C(C)C)[C@@H](C)O)[C@@H](C)CC [Peptide 4, [CH3(CH2)6CO-Tyr^1, D-Arg^2, Phe(pCl)^6, Arg^9, Abu^15, Nle^27, D-Arg^28, Har^29]hGH-RH(1-29)NH2] (Octanoyl-Y[dR]DAI[Phe(4-Cl)]TNRYRKVL[Abu]QLSARKLLQDI[Nle][dR][hArg]-NH2) | 53 | extremely high binding affinities | 5 % of control | 0 % of control | 12 % of control | 8 % of control | 18 % of control | high endocrine antagonistic potencies |
| CCCCCCCCCC(=O)N[C@@H](Cc1ccc(O)cc1)C(=O)N[C@H](CCCNC(=N)N)C(=O)N[C@@H](CC(=O)O)C(=O)N[C@@H](C)C(=O)N[C@H](C(=O)N[C@@H](Cc1ccc(Cl)cc1)C(=O)N[C@H](C(=O)N[C@@H](CC(N)=O)C(=O)N[C@@H](CCCNC(=N)N)C(=O)N[C@@H](Cc1ccc(O)cc1)C(=O)N[C@@H](CCCNC(=N)N)C(=O)N[C@@H](CCCCN)C(=O)N[C@H](C(=O)N[C@@H](CC(C)C)C(=O)N[C@@H](CC)C(=O)N[C@@H](CCC(N)=O)C(=O)N[C@@H](CC(C)C)C(=O)N[C@@H](CO)C(=O)N[C@@H](C)C(=O)N[C@@H](CCCNC(=N)N)C(=O)N[C@@H](CCCCN)C(=O)N[C@@H](CC(C)C)C(=O)N[C@@H](CC(C)C)C(=O)N[C@@H](CCC(N)=O)C(=O)N[C@@H](CC(=O)O)C(=O)N[C@H](C(=O)N[C@@H](CCCC)C(=O)N[C@H](CCCNC(=N)N)C(=O)N[C@@H](CCCCNC(=N)N)C(N)=O)[C@@H](C)CC)C(C)C)[C@@H](C)O)[C@@H](C)CC [Peptide 6, [CH3(CH2)8CO-Tyr^1, D-Arg^2, Phe(pCl)^6, Arg^9, Abu^15, Nle^27, D-Arg^28, Har^29]hGH-RH(1-29)NH2] (Decanoyl-Y[dR]DAI[Phe(4-Cl)]TNRYRKVL[Abu]QLSARKLLQDI[Nle][dR][hArg]-NH2) | 0.6 |  | 56 % of control | 22 % of control | 12 % of control | 15 % of control | 19 % of control |  |
| CCCC[C@H](NC(=O)[C@@H](NC(=O)[C@H](CC(=O)O)NC(=O)[C@H](CCC(N)=O)NC(=O)[C@H](CC(C)C)NC(=O)[C@H](CC(C)C)NC(=O)[C@H](CCCCN)NC(=O)[C@H](CCCNC(=N)N)NC(=O)[C@H](C)NC(=O)[C@H](CO)NC(=O)[C@H](CC(C)C)NC(=O)[C@H](CCC(N)=O)NC(=O)[C@H](CC)NC(=O)[C@H](CC(C)C)NC(=O)[C@@H](NC(=O)[C@H](CCCCN)NC(=O)[C@H](CCCNC(=N)N)NC(=O)[C@H](Cc1ccc(OC)cc1)NC(=O)[C@H](Cc1c[nH]cn1)NC(=O)[C@H](CC(N)=O)NC(=O)[C@@H](NC(=O)[C@H](Cc1ccc(Cl)cc1)NC(=O)[C@@H](NC(=O)[C@H](C)NC(=O)[C@H](CC(=O)O)NC(=O)[C@@H](CCCNC(=N)N)NC(=O)[C@H](Cc1ccc(O)cc1)NC(=O)Cc1ccccc1)[C@@H](C)CC)[C@@H](C)O)C(C)C)[C@@H](C)CC)C(=O)N[C@H](CCCNC(=N)N)C(=O)N[C@@H](CCCCNC(=N)N)C(N)=O [Peptide 69, [PhAc-Tyr^1, D-Arg^2, Phe(pCl)^6, His^9, Tyr(Me)^10, Abu^15, Nle^27, D-Arg^28, Har^29]hGH-RH(1-29)NH2] (PhAc-Y[dR]DAI[Phe(4-Cl)]TNHY(Me)RKVL[Abu]QLSARKLLQDI[Nle][dR][hArg]-NH2) |  | extremely high binding affinities | 9 % of control | 12 % of control | 18 % of control | 18 % of control | 25 % of control | high endocrine antagonistic potencies |
